Assay results: US20140303092A1 (CHIMERIX, INC., priority 2011, published 2014)

Assay: Study HDP-CDV-201: safety and tolerability (adverse events, laboratory abnormalities, discontinuations)
Assay type: in vivo, human (adult allogeneic HSCT recipients)
Settings: for Subjects with Hemoglobin <6.5 g/dL / Subjects with Hemoglobin <8-6.5 g/dL / Subjects with Hemoglobin <10-8 g/dL / Subjects with Hemoglobin <LLN-10 g/dL / Subjects with Neutrophils <0.5 GI/L / Subjects with Neutrophils <1.0-0.5 GI/L / Subjects with Neutrophils <1.5-1 GI/L / Subjects with Neutrophils <LLN-1.5 GI/L / Subjects with Platelets <25 GI/L / Subjects with Platelets <50-25 GI/L / Subjects with Platelets <75-50 GI/L / Subjects with Platelets <LLN-75 GI/L / Subjects with Serum Creatinine >1 × ULN-[…] ULN / Subjects with Serum Creatinine >3 × ULN-6 × ULN / Subjects with Serum Creatinine >6 × ULN / Subjects with Serum Creatinine >[…] ULN-3 × ULN / Subjects with WBC <1 GI/L / Subjects with WBC <2-1 GI/L / Subjects with WBC <3-2 GI/L / Subjects with WBC <LLN-3 GI/L: any time during therapy
Description: Clinical Studies of HDP-CDV were performed and described in detail in the following Examples. For example, HDP-CDV-201 is a placebo-controlled, dose-escalating trial in HSCT CMV (R+) recipients, evaluating the ability of HDP-CDV to prevent or control CMV infection was carried out. Five cohorts were established in which participants or subjects received either placebo or the HDP-CDV orally, in doses ranging from 40 mg weekly (QW) to 200 mg twice weekly (BIW). Subjects who were post-HSCT were enrolled at the time of engraftment and randomized to HDP-CDV or placebo (3 to 1 ratio) and received blinded therapy until approximately 100 day post-transplantation. HDP-CDV doses were 40 mg QW, 100 mg QW, 200 mg QW, 200 mg BIW and 100 mg BIW. Escalation to the next dose was decided by the data monitoring committee after review of the safety data from the previous Cohort. Subjects who developed CMV disease or CMV infection requiring pre-emptive therapy with local standard of care were discontinued from blinded therapy and followed for 4 weeks. Subjects who completed treatment with blinded therapy were followed for 8 weeks post-therapy.
Data from Study HDP-CDV-201 also provided characterization of the safety and tolerability profile of HDP-CDV when administered for the prevention or control of CMV infection in high risk (R^+) post-HSCT adult subjects.
The Safety population (SAFETY) included all randomized subjects who took at least one dose of study treatment. This population was used to summarize safety outcomes based on the treatment actually received, in cases where a subject was treated contrary to the randomization schedule.
The safety and tolerability profile of HDP-CDV, including subject demographics and Baseline characteristics; the AE profile; and laboratory abnormalities of interest were analyzed in the cohorts followed in this investigation.
Subjects completing the treatment period received a full course of study medication; those completing the entire study attended visits through 8 weeks of follow up. Subjects who discontinued treatment may have done so for protocol specified reasons (e.g. development of clinically significant CMV infection requiring preemptive treatment with excluded anti-CMV medications) or for other reasons (e.g., withdrawal, adverse events, loss to follow-up). The disposition of subjects in Study HDP-CDV-201 during the double-blind, placebo-controlled treatment period (through Week 11) is listed by dosing Cohort in TABLE 23.
Adverse events were examined by severity to ensure that all safety signals were identified in this study population. Because of the frequency of events in HSCT recipients, particular attention was given to evaluation of Grade 3 […], 4 (severe), and 5 (fatal) adverse events.
Only those preferred terms for which at least one Grade 3 or higher event was experienced in any treatment group are listed. Cytomegalovirus-related AEs are excluded from this analysis.
HDP-CDV is a lipid conjugate of CDV. Because CDV is known to have adverse effects on renal function and bone marrow, decreased GFR and persistent neutropenia were identified as AEs of special interest. Key renal and hematological (TABLE 30) laboratory parameters were measured and listed below by Study HDP-CDV-201 treatment groups. TABLE 30 includes abnormal levels of serum creatinine, neutrophils, platelets, WBCs, and hemoglobin and includes data at Screening and during the treatment period.
A common metric for unit based dosing of medications is by weight (mg/kg). When the distribution of weights was examined for all subjects participating in the study, the median was 78 kg and the lower 25th percentile weight was approximately 65 kg, which translates to a cut-off of ˜3 mg/kg for a 200 mg total weekly dose. Based upon this approach, a cut-off of 3 mg/kg was used to assess the frequency of diarrhea and associated GI AEs reported for the subjects in Cohorts 3 or 4a (TABLE 40).

CCCCCCCCCCCCCCCCOCCCOP(=O)(O)COC(CO)Cn1ccc(N)nc1=O (centres unmarked) [HDP-CDV]
Outcome of hepatobiliary AE hyperbilirubinemia, subject 4080 (Cohort 4a): not recovered/not
Outcome of hepatobiliary AE hyperbilirubinemia, subject 4090 (Cohort 4a): recovered/resolved
Outcome of hepatobiliary AE worsening hyperbilirubinemia, subject 4109 (Cohort 4a): not recovered/not
Relationship of hepatobiliary AE cholecystitis, subject 4058 (Cohort 4a): not related
Relationship of hepatobiliary AE hyperbilirubinemia, subject 4080 (Cohort 4a): not related
Relationship of hepatobiliary AE hyperbilirubinemia, subject 4090 (Cohort 4a): possibly related
Relationship of hepatobiliary AE worsening hyperbilirubinemia, subject 4109 (Cohort 4a): not related
frequency of SAEs involving the gastrointestinal tract (Cohort 4a (100 mg BIW)): 42%
typical ALT increases relative to Baseline (Weeks 2 to 4 of dosing, doses of 200 mg per week or higher): 2-4 times Baseline
subjects who discontinued study drug because of GI AEs (after introduction of the safety monitoring and management plan): ≤ 10%
Grade 3 or 4 increases in creatinine (any dose): no Grade 3 or 4 increases in creatinine
subjects who discontinued study drug due to GI AEs (any dose other than 200 mg BIW): less than 10%
Subjects with Hemoglobin <6.5 g/dL (40 mg QW): 0
Subjects with Hemoglobin <8-6.5 g/dL (40 mg QW): 1 (4.3%)
Subjects with Hemoglobin <10-8 g/dL (40 mg QW): 11 (47.8%)
Subjects with Hemoglobin <LLN-10 g/dL (40 mg QW): 10 (43.5%)
Subjects with Neutrophils <0.5 GI/L (40 mg QW): 0
Subjects with Neutrophils <1.0-0.5 GI/L (40 mg QW): 2 (8.7%)
Subjects with Neutrophils <1.5-1 GI/L (40 mg QW): 5 (21.7%)
Subjects with Neutrophils <LLN-1.5 GI/L (40 mg QW): 4 (17.4%)
Subjects with Platelets <25 GI/L (40 mg QW): 4 (17.4%)
Subjects with Platelets <50-25 GI/L (40 mg QW): 9 (39.1%)
Subjects with Platelets <75-50 GI/L (40 mg QW): 4 (17.4%)
Subjects with Platelets <LLN-75 GI/L (40 mg QW): 6 (26.1%)
Subjects with Serum Creatinine >1 × ULN-[…] ULN (40 mg QW): 8 (34.8%)
Subjects with Serum Creatinine >3 × ULN-6 × ULN (40 mg QW): 0
Subjects with Serum Creatinine >6 × ULN (40 mg QW): 0
Subjects with Serum Creatinine >[…] ULN-3 × ULN (40 mg QW): 2 (8.7%)
Subjects with WBC <1 GI/L (40 mg QW): 0
Subjects with WBC <2-1 GI/L (40 mg QW): 5 (21.7%)
Subjects with WBC <3-2 GI/L (40 mg QW): 6 (26.1%)
Subjects with WBC <LLN-3 GI/L (40 mg QW): 5 (21.7%)
Subjects with Hemoglobin <6.5 g/dL (100 mg BIW): 1 (2.0%)
Subjects with Hemoglobin <8-6.5 g/dL (100 mg BIW): 4 (8.0%)
Subjects with Hemoglobin <10-8 g/dL (100 mg BIW): 27 (54.0%)
Subjects with Hemoglobin <LLN-10 g/dL (100 mg BIW): 17 (34.0%)
Subjects with Neutrophils <0.5 GI/L (100 mg BIW): 3 (6.0%)
Subjects with Neutrophils <1.0-0.5 GI/L (100 mg BIW): 10 (20.0%)
Subjects with Neutrophils <1.5-1 GI/L (100 mg BIW): 10 (20.0%)
Subjects with Neutrophils <LLN-1.5 GI/L (100 mg BIW): 5 (10.0%)
Subjects with Platelets <25 GI/L (100 mg BIW): 6 (12.0%)
Subjects with Platelets <50-25 GI/L (100 mg BIW): 7 (14.0%)
Subjects with Platelets <75-50 GI/L (100 mg BIW): 10 (20.0%)
Subjects with Platelets <LLN-75 GI/L (100 mg BIW): 21 (42.0%)
Subjects with Serum Creatinine >1 × ULN-[…] ULN (100 mg BIW): 16 (32.0%)
Subjects with Serum Creatinine >3 × ULN-6 × ULN (100 mg BIW): 0
Subjects with Serum Creatinine >6 × ULN (100 mg BIW): 0
Subjects with Serum Creatinine >[…] ULN-3 × ULN (100 mg BIW): 10 (20.0%)
Subjects with WBC <1 GI/L (100 mg BIW): 4 (8.0%)
Subjects with WBC <2-1 GI/L (100 mg BIW): 8 (16.0%)
Subjects with WBC <3-2 GI/L (100 mg BIW): 12 (24.0%)
Subjects with WBC <LLN-3 GI/L (100 mg BIW): 11 (22.0%)
Subjects with Hemoglobin <6.5 g/dL (100 mg QW): 1 (3.7%)
Subjects with Hemoglobin <8-6.5 g/dL (100 mg QW): 1 (3.7%)
Subjects with Hemoglobin <10-8 g/dL (100 mg QW): 12 (44.4%)
Subjects with Hemoglobin <LLN-10 g/dL (100 mg QW): 12 (44.4%)
